# Experimental data: ChEMBL document CHEMBL4417630, “Small-molecule inhibitors of Rac1 in metastatic breast cancer” (2014)
# The source made the active and inactive calls. The rule behind the calls is not given here.
# Key:
# [1] = target: Transforming protein RhoA (Homo sapiens) (UniProt P61586); test: Activation of RhoA in human MDA-MB-435 cells assessed as remaining enzyme activity at 4 uM by Western blotting based pulldown assay (reference value: 100%); assay type: cell-based
# [2] = Toxicity in athymic nude mouse assessed as effect on body weight at 1 mg/kg, ip dosed once week for 9 weeks; assay type: organism-based; conditions: in vivo, 1512 h
# [3] = target: Cell division control protein 42 homolog (Homo sapiens) (UniProt P60953); test: Inhibition of Cdc42 in human MDA-MB-435 cells assessed as remaining enzyme activity at 5 uM by Western blotting based pulldown assay (reference value: 100%); assay type: cell-based
# [4] = target: Ras-related C3 botulinum toxin substrate 1 (Homo sapiens) (UniProt P63000); test: Inhibition of Rac1 in human MDA-MB-435 cells assessed as reduction in PAK1 […] phosphorylation at 2 to 4 uM by Western blot analysis; assay type: cell-based
# MCF-10A [5] = test: Cytotoxicity against human MCF10A cells assessed as reduction in cell viability at 1 to 2 uM incubated for 24 hrs by MTT assay; assay type: cell-based
# [6] = target: Cell division control protein 42 homolog (Homo sapiens) (UniProt P60953); test: Inhibition of Cdc42 in human MDA-MB-435 cells assessed as remaining enzyme activity at 4 uM by Western blotting based pulldown assay (reference value: 100%); assay type: cell-based
# [7] = target: Transforming protein RhoA (Homo sapiens) (UniProt P61586); test: Activation of RhoA in human MDA-MB-435 cells assessed as remaining enzyme activity at 5 uM by Western blotting based pulldown assay (reference value: 100%); assay type: cell-based
# MDA-MB-231 [8] = test: Cytotoxicity against human MDA-MB-231 cells assessed as reduction in cell viability at 25 uM incubated for 24 hrs by MTT assay; assay type: functional, cell-based
# [9] = target: Transforming protein RhoA (Homo sapiens) (UniProt P61586); test: Activation of RhoA in human MDA-MB-435 cells assessed as remaining enzyme activity at 10 uM by Western blotting based pulldown assay (reference value: 100%); assay type: cell-based
# [10] = target: Cell division control protein 42 homolog (Homo sapiens) (UniProt P60953); test: Inhibition of Cdc42 in human MDA-MB-435 cells assessed as remaining enzyme activity at 2 uM by Western blotting based pulldown assay (reference value: 100%); assay type: cell-based
# [11] = tested on: Ras-related C3 botulinum toxin substrate 1 (Homo sapiens), P63000 [G15A]; test: Inhibition of glutathione agarose conjugated Rac1 G15A mutant (unknown origin) in assessed as reduction in purified Tiam-1 DH/PH domain association with Rac1 G15A mutant by measuring average Tiam-1 level in pulldown at 25 uM by Western blotting based pulldown assay (reference value: 100%); parameters: scale not given: the % may be the effect or the level left
# [12] = target: Ras-related C3 botulinum toxin substrate 1 (Homo sapiens) (UniProt P63000); test: Inhibition of Rac1 in human MDA-MB-435 cells assessed as remaining enzyme activity at 4 uM by Western blotting based pulldown assay (reference value: 100%); assay type: cell-based
# [13] = target: Ras-related C3 botulinum toxin substrate 1 (Homo sapiens) (UniProt P63000); test: Inhibition of Rac1 in human MDA-MB-435 cells assessed as remaining enzyme activity at 2 uM by Western blotting based pulldown assay (reference value: 100%); assay type: cell-based
# [14] = tested on: Ras-related C3 botulinum toxin substrate 1 (Homo sapiens), P63000 [G15A]; test: Inhibition of glutathione agarose conjugated Rac1 G15A mutant (unknown origin) in assessed as reduction in purified Tiam-1 DH/PH domain association with Rac1 G15A mutant by measuring average Tiam-1 level in pulldown at 8 uM by Western blotting based pulldown assay (reference value: 100%); parameters: scale not given: the % may be the effect or the level left
# [15] = target: Ras-related C3 botulinum toxin substrate 1 (Homo sapiens) (UniProt P63000); test: Inhibition of Rac1 in human MDA-MB-231 cells assessed as remaining enzyme activity at 2 uM by Western blotting based pulldown assay (reference value: 100%); assay type: cell-based
# [16] = tested on: Ras-related C3 botulinum toxin substrate 1 (Homo sapiens), P63000 [G15A]; test: Inhibition of glutathione agarose conjugated Rac1 G15A mutant (unknown origin) in assessed as reduction in purified Tiam-1 DH/PH domain association with Rac1 G15A mutant at […] by Western blotting based pulldown assay relative to control
# [17] = tested on: Ras-related C3 botulinum toxin substrate 1 (Homo sapiens), P63000 [G15A]; test: Inhibition of glutathione agarose conjugated Rac1 G15A mutant (unknown origin) in assessed as reduction in purified Tiam-1 DH/PH domain association with Rac1 G15A mutant by measuring average Tiam-1 level in pulldown at 4 uM by Western blotting based pulldown assay (reference value: 100%); parameters: scale not given: the % may be the effect or the level left
# [18] = Toxicity in athymic nude mouse assessed as effect on body weight at 1 mg/kg, po dosed once week for 9 weeks; assay type: organism-based; conditions: in vivo, 1512 h
# MDA-MB-231 [19] = test: Cytotoxicity against human MDA-MB-231 cells assessed as reduction in cell viability at 1 to 2 uM incubated for 24 hrs by MTT assay; assay type: functional, cell-based
# [20] = target: Ras-related C3 botulinum toxin substrate 1 (Homo sapiens) (UniProt P63000); test: Potency index, ratio of IC50 for NSC-23766 to IC50 for test compound for inhibition of Rac1 in human MDA-MB-435 cells incubated for 24 hrs by G-LISA Rac1 activation assay; assay type: cell-based
# [21] = Toxicity in athymic nude mouse assessed as effect on gross indications of toxicity at 1 mg/kg, po dosed once week for 9 weeks; assay type: organism-based; conditions: in vivo, 1512 h
# [22] = target: Cell division control protein 42 homolog (Homo sapiens) (UniProt P60953); test: Inhibition of Cdc42 in human MDA-MB-435 cells assessed as inhibition of lamellipodia formation at 2 to 4 uM incubated for 24 hrs rhodamine phalloidin staining based fluorescence microscopy; assay type: cell-based
# [23] = tested on: Ras-related C3 botulinum toxin substrate 1 (Homo sapiens), P63000 [G15A]; test: Inhibition of glutathione agarose conjugated Rac1 G15A mutant (unknown origin) in assessed as reduction in purified Tiam-1 DH/PH domain association with Rac1 G15A mutant at 40 uM by Western blotting based pulldown assay relative to control
# [24] = target: Transforming protein RhoA (Homo sapiens) (UniProt P61586); test: Activation of RhoA in human MDA-MB-435 cells assessed as remaining enzyme activity at 2 uM by Western blotting based pulldown assay (reference value: 100%); assay type: cell-based
# [25] = target: Cell division control protein 42 homolog (Homo sapiens) (UniProt P60953); test: Inhibition of Cdc42 in human MDA-MB-435 cells assessed as remaining enzyme activity at 10 uM by Western blotting based pulldown assay (reference value: 100%); assay type: cell-based
# [26] = Toxicity in athymic nude mouse assessed as effect on gross indications of toxicity at 1 mg/kg, ip dosed once week for 9 weeks; assay type: organism-based; conditions: in vivo, 1512 h
# [27] = target: Ras-related C3 botulinum toxin substrate 1 (Homo sapiens) (UniProt P63000); test: Inhibition of Rac1 in human MDA-MB-231 cells assessed as remaining enzyme activity at 4 uM by Western blotting based pulldown assay (reference value: 100%); assay type: cell-based
# [28] = target: Cell division control protein 42 homolog (Homo sapiens) (UniProt P60953); test: Inhibition of Cdc42 in human MDA-MB-231 cells assessed as inhibition of lamellipodia formation at 2 to 4 uM incubated for 24 hrs rhodamine phalloidin staining based fluorescence microscopy; assay type: cell-based
# MDA-MB-435 [29] = test: Cytotoxicity against human MDA-MB-435 cells assessed as reduction in cell viability at 25 uM incubated for 24 hrs by MTT assay; assay type: functional, cell-based
# MCF-10A [30] = test: Cytotoxicity against human MCF10A cells assessed as reduction in cell viability at 25 uM incubated for 24 hrs by MTT assay; assay type: cell-based
# [31] = target: Ras-related C3 botulinum toxin substrate 3 (Homo sapiens) (UniProt P60763); test: Inhibition of Rac3 in human MDA-MB-435 cells assessed as remaining enzyme activity at 1 uM by Western blotting based pulldown assay (reference value: 100%); assay type: cell-based
# MDA-MB-435 [32] = test: Cytotoxicity against human MDA-MB-435 cells assessed as reduction in cell viability at 1 to 2 uM incubated for 24 hrs by MTT assay; assay type: functional, cell-based
# Transforming protein RhoA (Homo sapiens), sequence (P61586 whole entry): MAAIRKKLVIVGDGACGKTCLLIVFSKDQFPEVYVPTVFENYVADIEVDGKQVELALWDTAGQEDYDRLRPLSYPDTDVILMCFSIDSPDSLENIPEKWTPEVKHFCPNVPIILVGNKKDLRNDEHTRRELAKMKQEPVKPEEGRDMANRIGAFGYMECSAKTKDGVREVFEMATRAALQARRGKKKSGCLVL
# Cell division control protein 42 homolog (Homo sapiens), sequence (P60953 whole entry, looked up, the tested form may be a part): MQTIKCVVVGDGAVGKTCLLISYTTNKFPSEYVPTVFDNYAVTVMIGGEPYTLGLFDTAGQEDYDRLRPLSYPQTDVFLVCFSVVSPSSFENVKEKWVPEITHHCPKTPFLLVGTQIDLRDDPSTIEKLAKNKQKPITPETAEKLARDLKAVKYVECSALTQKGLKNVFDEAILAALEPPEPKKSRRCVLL
smiles,measurement,setting,value
CCn1c2ccccc2c2cc(Nc3ccnc(NCCCN4CCOCC4)n3)ccc21,Activity,[1],128%
same,Activity,[2],Non-Toxic
same,Activity,[3],72%
same,inhibition,[4],Active
same,Activity,MCF-10A [5],Non-Toxic
same,Activity,[6],95%
same,Activity,[7],125%
same,Activity,MDA-MB-231 [8],Active
same,Activity,[9],123%
same,Activity,[10],104%
same,Activity,[11],112%
same,Activity,[12],7%
same,Activity,[13],19%
same,Activity,[14],96%
same,Activity,[15],65%
same,inhibition,[16],Active
same,Activity,[17],123%
same,Activity,[18],Non-Toxic
same,Activity,MDA-MB-231 [19],inactive
same,Ratio IC50,[20],100
same,Activity,[21],Non-Toxic
same,inhibition,[22],inactive
same,inhibition,[23],Active
same,Activity,[24],155%
same,Activity,[25],25%
same,Activity,[26],Non-Toxic
same,Activity,[27],35%
same,inhibition,[28],inactive
same,Activity,MDA-MB-435 [29],Active
same,Activity,MCF-10A [30],Toxic
same,Activity,[31],42%
same,Activity,MDA-MB-435 [32],inactive
